Experiments:
[1] = 5-FU plasma concentration at steady state during 46-h infusion; type: in vivo, human; details: cycle 2; 2400 mg/m^2 46-h continuous infusion
[2] = tested on: patients with solid tumors; details: single agent, cited from earlier work
[3] = tested on: topoisomerase I (Topo I); details: cited from earlier work
[4] = tested on: patients with advanced/metastatic solid tumors
[5] = Edotecarin plasma pharmacokinetics in cancer patients after 1-h IV infusion; type: in vivo, human; details: for AUC (0-inf) / AUC (0–24): 6 mg/m^2 dose only; for AUC (0-inf) / AUC (0–24) / CL (total body-clearance) / T (terminal half-life) / Vss / Dose normalized AUC (0-inf) / Dose normalized AUC (0–24) / Dose normalized Cmax / half-life / Tmax: mean ± SD; for Dose normalized AUC (0-inf) / Dose normalized AUC (0–24) / Dose normalized Cmax: normalized to a 1 mg/m^2 dose; for half-life / Tmax: human, plasma, intravenous; for half-life: T (terminal half-life)
[6] = tested on: HCT-116 colon, SCC-25 tongue, A427 NSCL and J82 human carcinoma cell lines; details: variety of cell lines (e.g. colon, non-small cell, lung, tongue and bladder); cited from earlier work
[7] = tested on: liver micrometastases; details: mice; cited from earlier work
[8] = tested on: irinotecan-naïve patients with CRC; details: single agent 13 mg/m^2, cited from earlier work
[9] = tested on: human CRC model (HCT-116); details: no added toxicity; cited from earlier work
[10] = tested on: P450; details: cited from earlier work
[11] = tested on: advanced/metastatic solid tumors; test: Tumor response by Response Evaluation Criteria in Solid Tumors; type: in vivo, human; details: 14 treated patients, edotecarin/5-FU/LV
[12] = tested on: cells that have acquired resistance related to P-glycoprotein; details: cited from earlier work
[13] = all 14 patients, all cycles, edotecarin with 5-FU/LV

Structure (SMILES): O=c1[nH]cc(F)c(=O)[nH]1 [5-FU, 5-fluorouracil]
- average concentration obtained at steady state [1]: 455.9 ± 222.8 ng/mL

Structure (SMILES): O=C1c2c(c3c4ccc(O)cc4n([C@@H]4O[C@H](CO)[C@@H](O)[C@H](O)[C@H]4O)c3c3[nH]c4cc(O)ccc4c23)C(=O)N1NC(CO)CO [Edotecarin, 6–N-(1-hydroxymethyla-2-hydroxyl) ethylamino-12,13-dihydro-13-(beta-D-glucopyranosyl)-5Hindolo(2,3-a)-pyrrolo(3,4-c)-carbazole-5,7(6H)-dione]
- recommended dose for phase II studies ([2]; 3-week schedule with 1 week permitted for recovery): 13 mg/m^2
- recommended phase II dose ([2]; once every 21 days, ref Hurwitz et al. [8]): 13 mg/m^2
- induction of single-strand DNA cleavage ([3]; at different DNA sequences): more effectively than NB-506 or camptothecin
- stability of induced DNA-Topo I complexes [3]: more stable than those occurring after exposure to camptothecin or NB-506
- patients with DLT (grade 3 neutropenia not recovered to grade 1 by day 21) ([4]; 6 mg/m^2 edotecarin cohort without 5-FU bolus, expanded to five patients): one patient
- patients with grade 4 neutropenia (DLT) ([4]; 8 mg/m^2 edotecarin cohort, no 5-FU bolus, two of the three patients): 66%
- deaths within 30 days of the last treatment dose ([4]; 14 patients): No patients died
- patients discontinued from the study because of adverse events (neutropenia) ([4]; 14 patients, 90 cycles): four patients
- patients with dose reductions because of AEs (neutropenia) ([4]; 14 patients, 90 cycles): three patients
- patients with serious adverse events ([4]; 14 patients, 90 cycles, two treatment-related, two unrelated): four patients
- patients with fatigue (AE overall) [4, 13]: 64%
- patients with neutropenia (AE overall) [4, 13]: 57%
- patients with pyrexia (AE overall) [4, 13]: 50%
- patients with vomiting (AE overall) [4, 13]: 42%
- patients with fatigue during cycle 1 ([4]; all 14 patients, cycle 1): 35%
- patients with nausea during cycle 1 ([4]; all 14 patients, cycle 1): 50%
- patients with neutropenia during cycle 1 ([4]; all 14 patients, cycle 1): 50%
- changes in clinical laboratory parameters, vital signs measurements, or ECG results ([4]; edotecarin with 5-FU/LV): No clinically important treatment-related changes
- gastrointestinal toxicities, especially diarrhea ([4]; edotecarin with 5-FU/LV, in general): minimal
- maximum tolerated dose ([4]; edotecarin with infusional 5-FU/LV every 2 weeks, only 6 and 8 mg/m^2 explored): no maximum tolerated dose was declared
- AUC (0-inf) ([5]; cycle 1): 124.5 ± 34.7 ng/h/mL
- AUC (0–24) ([5]; cycle 1): 91.0 ± 21.6 ng/h/mL
- CL (total body-clearance) ([5]; cycle 1): 51.3 ± 12.4 l/h/m^2
- T (terminal half-life) ([5]; cycle 1): 25.3 ± 6.4 h
- Vss ([5]; cycle 1): 884.4 ± 296.0 l/m^2
- Dose normalized AUC (0-inf) ([5]; cycle 1): 20.7 ± 5.4 ng/h/mL
- Dose normalized AUC (0–24) ([5]; cycle 1): 15.3 ± 3.6 h/ng/mL
- Dose normalized Cmax ([5]; cycle 1): 13.2 ± 2.9 ng/mL
- AUC (0-inf) ([5]; cycle 2): 91.7 ± 31.9 ng/h/mL
- AUC (0–24) ([5]; cycle 2): 65.3 ± 22.9 ng/h/mL
- CL (total body-clearance) ([5]; cycle 2): 73.3± 29.7 l/h/m^2
- T (terminal half-life) ([5]; cycle 2): 20.3 ± 4.2 h
- Vss ([5]; cycle 2): 1408.7± 999.7 l/m^2
- Dose normalized AUC (0-inf) ([5]; cycle 2): 15.4 ± 5.1 ng/h/mL
- Dose normalized AUC (0–24) ([5]; cycle 2): 11.1 ± 3.7 h/ng/mL
- Dose normalized Cmax ([5]; cycle 2): 10.1 ± 4.4 ng/mL
- half-life ([5]; cycle 1): ~25 h
- half-life ([5]; cycle 2): ~20 h
- Tmax ([5]; cycle 1): 0.48 ± 0.22 h
- Tmax ([5]; cycle 2): 0.83 h
- disposition after completion of the IV administration ([5]; very rapid initial decline then much slower reduction in plasma concentrations): bi-exponential disposition
- effect of the combination of edotecarin with 5-FU [6]: additive effect
- inhibition of proliferation of liver micrometastases [7]: highly effective
- patients with stable disease (including four minor responses) ([8]; 24 patients, 13 patients): 57%
- patients with partial response ([8]; 24 patients, three patients): 13%
- median time to tumor progression [8]: 7.1 months
- patients with grade 3/4 febrile neutropenia ([8]; one patient): 4.2%
- efficacy in combination with 5-FU (concurrent treatment) [9]: efficacy superior in combination than with the drugs as single agents
- formation of active metabolites [10]: does not form any active metabolites
- substrate for in vitro P450-mediated metabolism [10]: is not a substrate
- patients with progressive disease as best overall response [11]: six patients
- patients with stable disease as best overall response [11]: seven patients
- patients with complete response as best overall response ([11]; patient with HCC, confirmed by cycle 5): one patient
- activity on P-glycoprotein-related resistant cells [12]: effective
